# What was measured:
# mouse TAAR1 = mouse TAAR1 (Mus musculus (Mouse), UniProt Q923Y8); assay: Radioligand binding assay on mouse TAAR1; conditions: mouse TAAR1, membranes of stably transfected HEK-293 cells; first value of mouse/rat pair
# Procedure, shortened: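 Membranes from HEK293 cells stably expressing mouse TAAR1, in HEPES-NaOH pH 7.4; displacement of ³H-(S)-4-[(ethyl-phenyl-amino)-methyl]-4,5-dihydro-oxazol-2-ylamine, nonspecific binding with 10 μM unlabeled ligand.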
# rat TAAR1 = rat TAAR1 (Rattus norvegicus (Rat), UniProt Q923Y9); assay: Radioligand binding assay on rat TAAR1; conditions: rat TAAR1, membranes of stably transfected HEK-293 cells; second value of mouse/rat pair
# rat TAAR1, sequence (Q923Y9 whole entry): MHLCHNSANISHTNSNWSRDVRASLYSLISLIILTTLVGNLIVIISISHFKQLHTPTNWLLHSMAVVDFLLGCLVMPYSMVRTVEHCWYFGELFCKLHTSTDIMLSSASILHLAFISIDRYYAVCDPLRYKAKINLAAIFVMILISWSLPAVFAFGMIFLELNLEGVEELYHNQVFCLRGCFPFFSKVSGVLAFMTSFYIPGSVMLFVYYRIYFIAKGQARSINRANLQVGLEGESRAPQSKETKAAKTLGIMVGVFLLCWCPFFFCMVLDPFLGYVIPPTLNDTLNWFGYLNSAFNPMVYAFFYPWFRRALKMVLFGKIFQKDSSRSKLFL
# Procedure, shortened: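 Competition binding with [3H]-(S)-4-[(ethyl-phenyl-amino)-methyl]-4,5-dihydro-oxazol-2-ylamine on membranes from HEK293 cells stably expressing rat TAAR1, in HEPES-NaOH pH 7.4. Compounds spanned 10 pM-10 μM in duplicate, incubated 1 h at 4 °C, with nonspecific binding set by 10 μM unlabeled ligand. Filtration followed by scintillation counting.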
# mouse TAAR1, sequence (Q923Y8 whole entry): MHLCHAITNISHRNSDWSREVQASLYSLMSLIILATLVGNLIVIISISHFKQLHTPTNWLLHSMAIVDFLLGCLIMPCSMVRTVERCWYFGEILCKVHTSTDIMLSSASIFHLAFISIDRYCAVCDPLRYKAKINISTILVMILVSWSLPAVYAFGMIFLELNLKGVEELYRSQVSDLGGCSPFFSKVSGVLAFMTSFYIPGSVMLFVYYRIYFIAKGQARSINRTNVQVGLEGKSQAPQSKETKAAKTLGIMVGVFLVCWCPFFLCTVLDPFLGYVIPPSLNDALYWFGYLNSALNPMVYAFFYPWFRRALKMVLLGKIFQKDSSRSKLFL
Ki (mouse TAAR1),Ki (rat TAAR1),Compound
0.0355 µM,0.095 µM,"N[C@H]1CCc2cc(NC(=O)NCc3ccc(Cl)cn3)ccc2C1 [Example 62, (S)-1-(6-Amino-5,6,7,8-tetrahydronaphthalen-2-yl)-3-((5-chloropyridin-2-yl)methyl)urea]"
0.0159 µM,0.0072 µM,"NC1CCc2cc(NC(=O)c3ccnc(C(F)(F)F)c3)ccc2C1 (stereo not shown) [Example 1, N-(6-Amino-5,6,7,8-tetrahydronaphthalen-2-yl)-2-(trifluoromethyl)isonicotinamide]"
0.0128 µM,0.0016 µM,"CCn1nc(C(=O)Nc2ccc3c(c2)CC[C@H](N)C3)c(Br)c1OCC(F)F [Example 52, (S)—N-(6-Amino-5,6,7,8-tetrahydronaphthalen-2-yl)-4-bromo-5-(2,2-difluoroethoxy)-1-ethyl-1H-pyrazole-3-carboxamide]"
0.003 µM,0.0017 µM,"NC1CCc2cc(C(=O)Nc3cccc(OC(F)(F)F)c3)ccc2C1 (stereo not shown) [Example 55, 6-Amino-N-(3-(trifluoromethoxy)phenyl)-5,6,7,8-tetrahydronaphthalene-2-carboxamide]"
0.0371 µM,0.0758 µM,"N[C@H]1COc2cc(NC(=O)c3ncc(C(F)(F)F)cn3)ccc2C1 [Example 84, (R)—N-(3-Aminochroman-7-yl)-5-(trifluoromethyl)pyrimidine-2-carboxamide]"
0.0091 µM,0.0096 µM,"N[C@H]1COc2cc(NC(=O)c3ccnc(C(F)(F)F)c3)ccc2C1 [Example 90, (R)—N-(3-Aminochroman-7-yl)-2-(trifluoromethyl)isonicotinamide]"

Compound,Ki (mouse TAAR1),Ki (rat TAAR1)
"NC1CCc2cc(C(=O)Nc3cccc(Cl)c3)ccc2C1 (stereo not shown) [Example 59, 6-Amino-N-(3-chlorophenyl)-5,6,7,8-tetrahydronaphthalene-2-carboxamide]",0.0018 µM,0.0109 µM
"N[C@H]1CCc2cc(NC(=O)Nc3ccc(Cl)cc3)ccc2C1 [Example 74, (S)-1-(6-Amino-5,6,7,8-tetrahydronaphthalen-2-yl)-3-(4-chlorophenyl)urea]",0.001 µM,0.0005 µM
